{"source": "patent US20250276038A1", "about": "“HISTATIN COMBINATIONS AND METHODS FOR TREATING OR INHIBITING CELL LOSS” (VISUS THERAPEUTICS, INC., priority 2021, published 2025)", "key": {"corneal nerves": {"test_system": "corneal nerves", "experiment": "Corneal nerve regeneration after surgical anterior keratectomy (Tuj1 wholemount immunohistochemistry)", "type": "in vivo, New Zealand White rabbits", "conditions": "Day 28; 35 μl topical TID, 80 μM histatin-1 (+100 μM peptide 6); mean±SD", "description": "Twelve New Zealand White rabbits, approximately 4-6 months old and weighing 2-3 kg were divided into 3 groups of 4 animals and dosed topically three times per day (TID) for 28 days with either 35 μl phosphate buffered saline (PBS), 35 μl 80 μM histatin-1 or 35 μl of 80 μM histatin-1+100 μM peptide 6 following a unilateral surgical keratectomy procedure.\nAnimals were administered buprenorphine (0.01-0.05 mg/kg, SC) for pain control just prior to the procedure. A second dose of buprenorphine (0.01-0.05 mg/kg, SC) was administered in the evening, and then administered on an as needed basis. Animals were induced for surgery with a ketamine/xylazine cocktail (50 mg/kg ketamine and 10 mg/kg xylazine IM); anesthesia was maintained with isoflurane delivered in oxygen through a mask as needed. Following induction of anesthesia, 5% betadine solution, on autoclaved sterile gauze, was used to clean the periocular (eyelids) area of the surgical eye. […]\nWhile corneas were incubating in their final wash, slides with imaging spacers were prepared. A 0.36, 0.6 mm or combination of the two adhesive imaging spacers (Grace Biolabs cat #SA-S-3L; custom cut to 22×40 mm rectangle with an oblong window cut out) was adhered to a glass slide; spacer thickness was determined by corneal thickness measured on the day of necropsy for treated eyes; control corneas utilized a 0.36 mm spacer. […]"}, "[1]": {"test_system": "corneal endothelial cells", "experiment": "Corneal endothelial cell density after surgical anterior keratectomy (corneal tomography)", "type": "in vivo, New Zealand White rabbits", "conditions": "35 μl 80 μM topical TID; for Percent endothelial cell density reduction from baseline: mean±SD", "description": "Sixteen New Zealand White rabbits, approximately 4-6 months old and weighing 2-3 kg were divided into 2 groups of 8 animals and dosed topically three times per day (TID) for 28 days with either 35 μl phosphate buffered saline (PBS) or 35 μl 80 μM histatin-1 following unilateral surgical keratectomy procedure.\n(§1) Animals were administered buprenorphine (0.01-0.05 mg/kg, SC) for pain control just prior to the procedure. A second dose of buprenorphine (0.01-0.05 mg/kg, SC) was administered in the evening, and then administered on an as needed basis. Animals were induced for surgery with a ketamine/xylazine cocktail (50 mg/kg ketamine and 10 mg/kg xylazine IM); anesthesia was maintained with isoflurane delivered in oxygen through a mask as needed. Following induction of anesthesia, 5% betadine solution, on autoclaved sterile gauze, was used to clean the periocular (eyelids) area of the surgical eye. Betadine was then used to irrigate the ocular surface and conjunctival cul-de-sac, which was then thoroughly irrigated with sterile eyewash. One drop each of 0.5% proparacaine HCl and 10% phenylephrine HCl, was then applied to the ocular surface for ocular anesthesia and mydriasis, respectively. The rabbits were positioned under an operating microscope and an eyelid speculum was affixed. An adjustable, 8 mm corneal vacuum trephine (Moria Surgical, Antony, France) was used to create a central corneal defect of approximately 10-25% stromal depth (approximately 100 μm). The trephined section of the cornea was removed, and the wound left open. Immediately following surgery, a single dose of topical antibiotic (Neomycin Polymyxin B Sulfates Gramicidin ophthalmic solution) was applied.\nThe corneas of anesthetized animals were imaged with a Heidelberg Retinal Tomograph fitted with a Rostock Corneal Module (HRT III RCM). This compact ophthalmic device uses confocal scanning laser microscopy to provide high-resolution en-face images of cornea cells and structures, including corneal sub-basal nerve plexus, keratocytes subpopulations and the corneal endothelial cell layer. Central cornea confocal scans from the epithelium to the endothelium were done and optical stacks of 400×400 μm and 2 μm thick sections were generated and electronically stored for analysis.\nThe optical slice with the endothelium layer having the best resolution and largest coverage was selected. Of the 16 animals in the study, only 14 animals had scans with usable endothelial cell layers at 1 or more time points, and a maximum of only 4 usable scans at any single time point. The HRT III cell counting software was used to adjust image contrast and brightness to enhance manual cell counting within a selected region of interest (ROI). ROIs were >0.005 mm^2. Number of cells within a ROI ranged from 118-287. Partial cells (>½) at the edges of the ROI were counted only on 2 sides at right angles. The software computed endothelial cell density as cells/mm^2 based on manual counts in the selected ROI. Data are presented as mean±standard deviation cells/mm^2. An unpaired Student's T test was used to compare the PBS and histatin-1 groups at each follow-up time point; p<0.05 was considered statistically significant."}, "[2]": {"test_system": "endothelial cells in human non-surgical cornea buttons", "experiment": "Corneal button preservation under stressed storage conditions (trypan blue staining)", "type": "cell-based", "conditions": "1 μM in standard cornea storage media", "description": "The effect of 1 μM histatin-1 formulated in Life4° C.™ or Optisol™ Corneal Storage Medium was assessed on the preservation of endothelial cells in 9 pairs of human non-surgical cornea buttons stored under stressed conditions. The tissues were individually stored in 20 mL Bausch & Lomb™ Cornea Tissue Viewing Chambers at room temperature (24±2° C.) for 6 to 14 days, preceded by storage at 4° C. for 3 days. All doners were White/Caucasian origin. The median age was 64 years and ranged from 14 to 73. The amount of time from the time of death to the preservation of the corneas ranged from 4 hours 15 mins to 20 hours 48 mins. Endothelial cell counts at the time of tissue harvest was 2222±240 cells/mm^2. Histatin-1 was added every other day to the right eye (OD) in a volume of 200 μL in an amount sufficient to maintain a concentration of 1 μM. Left eyes (OS) were given an equal volume of PBS. Endothelial cell viability was assessed by trypan blue staining as non-viable area expressed as a percentage of 80% of the central cornea. Briefly, cornea buttons were transferred from storage chambers to viewing wells (Barron Punch Cutting Block), endothelium side up, and 0.06% trypan blue in a volume sufficient to cover the endothelial layer limbus to limbus was applied and left for 90 secs, and then rinsed twice with PBS. […]"}, "stromal keratocytes": {"test_system": "stromal keratocytes", "experiment": "Loss of stromal keratocytes after surgical keratectomy (in vivo confocal corneal tomography, keratocyte counts)", "set-up": "species or system New Zealand White rabbits", "conditions": "for Percent keratocyte reduction from baseline: 35 μl topical TID, 80 μM histatin-1 (+100 μM peptide 6 in combination), mean±SD", "description": "Twenty-four New Zealand White rabbits, approximately 4-6 months old and weighing 2-3 kg were divided into 3 groups of 8 animals and dosed topically three times per day (TID) for 28 days with either 35 μl Phosphate Buffered Saline (PBS), 35 μl 80 μM histatin-1 (Hst-1), or 35 μl 80 μM histatin-1+100 μM peptide 6 (P6) combination following unilateral surgical keratectomy procedure.\nas §1, with “basis. Animals was induced for” for “basis. Animals were induced for”, “respectively. The rabbit was positioned under” for “respectively. The rabbits were positioned under”\nThe corneas of anesthetized animals were imaged with a Heidelberg Retinal Tomograph fitted with a Rostock Corneal Module (HRT III RCM). This compact ophthalmic device uses confocal scanning laser microscopy to provide high-resolution en-face images of cornea cells and structures, including keratocytes subpopulations and the corneal sub-basal nerve plexus. Central cornea confocal scans from the epithelium to the endothelium were done and optical stacks of 400 μm×400 μm and 2 μm thick sections were generated and electronically stored for analysis.\nA sampling region of the stack of optical scans was selected that corresponded to approximately 150 μm above the endothelium. This was done by counting 75 images up from the endothelium and selecting 5 adjacent images to serve as replicates. Keratocytes presented as reflective distinct irregular shaped objects. […] An unpaired Student's T test was used to compare the histatin-1 and the histatin-1+peptide 6 groups; p<0.05 was considered statistically significant."}}, "note": "Where no end group is shown, it is not given here."}
{"sequence": "DSHEKRHHGYRRKFHEKHHSHREFPFYGDYGSNYLYDN [histatin-1]", "values": [{"measurement": "Area of nerve regeneration", "setting": "corneal nerves", "value": "26.1±7", "unit": "mm^2"}, {"measurement": "Area of nerve regeneration as percent of initial 8 mm lesion area (50.3 mm^2)", "setting": "corneal nerves", "value": "51.9±14", "unit": "%"}, {"measurement": "Recovery and apparent normalization of endothelial cell density starting by Day", "setting": "[1]", "value": "≤ 10", "unit": "days"}, {"measurement": "Percent endothelial cell density reduction from baseline", "setting": "[1]; Day 7", "value": "15.1±2.8", "unit": "%"}, {"measurement": "Percent endothelial cell density reduction from baseline", "setting": "[1]; Day 10", "value": "1.1±9.1", "unit": "%"}, {"measurement": "Percent endothelial cell density reduction from baseline", "setting": "[1]; Day 14", "value": "−0.2±5.9", "unit": "%"}, {"measurement": "Percent endothelial cell density reduction from baseline", "setting": "[1]; Day 21", "value": "4.5±7.8", "unit": "%"}, {"measurement": "Percent endothelial cell density reduction from baseline", "setting": "[1]; Day 28", "value": "7.4±2.8", "unit": "%"}, {"measurement": "Reduction of stained area in the endothelial area versus PBS", "setting": "[2]", "value": 45, "unit": "%"}, {"measurement": "Complete recovery of keratocytes by Day", "setting": "stromal keratocytes; 35 μl topical TID after keratectomy", "value": "≤ 28", "unit": "days"}, {"measurement": "Percent keratocyte reduction from baseline", "setting": "stromal keratocytes; Day 7", "value": "40.2±3.3", "unit": "%"}, {"measurement": "Percent keratocyte reduction from baseline", "setting": "stromal keratocytes; Day 10", "value": "37.5±2.4", "unit": "%"}, {"measurement": "Percent keratocyte reduction from baseline", "setting": "stromal keratocytes; Day 14", "value": "32.7±15.3", "unit": "%"}, {"measurement": "Percent keratocyte reduction from baseline", "setting": "stromal keratocytes; Day 21", "value": "26.5±6.0", "unit": "%"}, {"measurement": "Percent keratocyte reduction from baseline", "setting": "stromal keratocytes; Day 28", "value": "2.7±13", "unit": "%"}]}
